{"source": "patent EP4417202A1", "about": "“ANTI-CANCER ACTION OF BAG1-SELECTIVE IMIDAZOPYRIDINE COMPOUNDS IN STEROID HORMONE RECEPTOR-POSITIVE BREAST AND PROSTATE CANCER” (Karlsruher Institut für Technologie, priority 2023, dated 2024)", "key": {"[1]": {"system": "TRMCF-7 cells (tamoxifen resistant MCF-7 cells)", "assay": "MTT cell viability assay", "format": "cell-based", "conditions": "48 h", "experimental": "[…] Cells transfected with siRNA were incubated for 72 h after X15695 addition. Thereafter, the medium was exchanged for a fresh medium containing 0.5 mg/ml MTT (Sigma-Aldrich) and incubated at 37°C for 1 h to 4 h (depending on cell line) until intracellular purple formazan crystals were formed. The MTT solution was removed, and the purple crystals were dissolved in isopropanol and the optical absorbance at 595 nm was recorded using SpectraMax iD3, Molecular Devices, San Jose, CA, USA."}, "LAPC-4 tumors": {"system": "LAPC-4 tumors", "assay": "Mouse xenograft experiment, LAPC-4", "format": "in vivo", "conditions": "LAPC-4 xenograft, 42 days", "experimental": "MCF-7 and LAPC-4 cells (2×10^6) were suspended in 100 µl PBS: Matrigel (Corning NY USA, 1:1) and injected subcutaneously into both flanks of 6-7 weeks old female (for MCF-7 cells) and male (for LAPC-4 cells) athymic nude-Foxn1^nu mice (Envigo RMS GmbH, Düsseldorf, Germany). When tumor volumes were around 50 to100 mm^3, mice were randomized into four groups (7 mice per group) and treated daily by oral gavage as follows: (1) Control group (Vehicle) (corn oil, 1.0% dimethyl sulfoxide (DMSO) and (2) X15695 group, 30 mg per kg body weight) for the MCF-7 tumors or (1) Control group (Vehicle) (corn oil, 1.0% dimethyl sulfoxide (DMSO) ([…]), (3) X15695 group, 30 mg per kg body weight) and, (4) X15695 group (15 mg per kg body weight) for the LAPC-4 tumors. Body weight and tumor volumes were measured twice a week. Tumor volume was measured with a digital vernier caliper and calculated using the formula vol = length × width × height × 0.5236 and recorded or calculated relative to the starting volume which was nominally set at 100%. After 16 days for the MCF-7 tumors or 42 days for the LAPC-4 tumors, mice were sacrificed and the tumors removed, photographed, and weighed. Percent body weight change was calculated using the following formula: group percent weight change = [(new weight - initial weight)/initial weight] × 100]. Tumors were snap-frozen and stored for Western blot analysis."}, "ERα": {"system": "ERα", "conditions": "MCF-7 cells, 1 µM for 24 h, then 100 µg/ml cycloheximide; > 120 min in the absence of X15695", "description": "Thereafter, cells were incubated with the protein synthesis inhibitor cycloheximide (100 µg/ml) and harvested at time points 0, 30, 60, 90 and 120 min. Cells were lysed and used for Western blotting to determine the ERα level at each time point."}, "ERα response genes": {"system": "ERα response genes", "assay": "Quantitative RT-PCR of ERα response genes in MCF-7 and T47D cells", "format": "cell-based", "conditions": "1 µM, 10 nM E2, 16 h", "experimental": "MCF-7, T47D and LNCaP cells (5×10^4 each) were seeded in 6-well plates and cultured with hormone-depleted medium for 3 days. Subsequently, the MCF-7 and T47D cells were treated with 10 nM 17-β-estradiol (E2) or dihydrotestosterone (DHT) for the LNCaP cells, 1 µM) X15695 (for the MCF-7 and T47D cells) or 5 µM) for LNCaP cells and X15695 together with E2 or DHT. A 1 h pre-treatment with X15695 was performed prior to treatment with E2 or DHT for 16 h. RNA was extracted using innuPREP RNA mini Kit 2.0 (Analytic Jena, Berlin, Germany). 1 µg RNA per sample was used as input material for the RNA sample preparations. Sequencing libraries were generated using NEBNext® UltraTM RNA Library Prep Kit for Illumina® (NEB, USA) following the manufacturer's recommendations and index codes were added to attribute sequences to each sample. The clustering of the index-coded samples was performed on a cBot Cluster Generation System using PE Cluster Kit cBot-HS (Illumina) according to the manufacturer's instructions. After cluster generation, the library preparations were sequenced on an Illumina platform and paired-end reads were generated. Library preparation and sequencing were carried out by Novogene Europe, Cambridge, UK. […] Select target genes were analyzed by RT-PCR experiments with RNA from the samples used for the RNA-seq analysis. […]"}, "p53": {"system": "p53", "assay": "Western blot of p53 level in breast cancer cells", "format": "cell-based", "conditions": "48 h", "description": "For Western blotting, cells were lysed in NP-40 lysis buffer (1% NP-40, 50 mM Tris-HCl, pH 8.0, 150 mM NaCl, 5 mM EDTA) or 1× passive lysis buffer (Promega, Germany) for 15 min on ice. Cell debris was removed by centrifugation at 13,000 rpm for 10 min and used for SDS-polyacrylamide gel electrophoresis (PAGE) and Western blotting.\nWestern Blotting was carried out using standard protocols with antibodies: p53 (clone DO1), p53 (Sp5, Thermo Fisher Scientific Karlsruhe, Germany), Mdm2 (4B2, Abcam, Cambridge, UK). […] Secondary goat anti-mouse and goat anti-rabbit antibodies were purchased from DAKO (Bollschweil, Germany)."}, "LNCaP and LAPC-4 cells": {"system": "LNCaP and LAPC-4 cells", "assay": "Apoptosis by automated high-throughput microscopy (Hoechst / propidium iodide)", "format": "cell-based", "conditions": "48 h", "experimental": "Apoptosis in LNCaP and LAPC-4 cells was measured using an automated high-throughput microscopy method known in the art. In brief, LNCaP and LAPC4 cells (5×10^3) were seeded in a 96-well plate format. Cells were treated with 10^-9 - 10^-6 M X15695, DMSO or etoposide (250 µM) for 48h. Cells were stained with Hoechst 33342 (0,15 µg/ml) and propidium iodide (PI) (0,25 µg/ml) for 30 min at 37°C. Four brightfield and fluorescence images were acquired from different positions in each well using an automated Olympus IX81 fluorescence microscope (Olympus, Hamburg, Germany). The Hoechst dye was detected at excitation 350 nm and emission 450 nm and PI dye was detected at 488 nm and 590 nm. The total number of cells (all Hoechst-stained nuclei) as well as the number of early apoptotic, late apoptotic, and necrotic cells (combination of Hoechst and PI nuclei intensity) was obtained by analyzing images with the scan^R software (version 2.7.3, Olympus, Hamburg, Germany)."}}, "data": [{"smiles": "Fc1ccc(-c2cn3cc(C(F)(F)F)cc(Cl)c3n2)cc1", "note": "[Compound X15695, 8-Chloro-2-(4-fluorophenyl)-6-(trifluoromethyl)imidazo[1,2-a]pyridine]", "values": [{"measurement": "inhibition of viability", "setting": "[1]", "value": "comparable activities"}, {"measurement": "tumor growth", "setting": "LAPC-4 tumors; oral 30 mg/kg/day, less effective than enzalutamide (10 mg/kg/day)", "value": "effectively inhibit tumor growth over vehicle"}, {"measurement": "tolerability, body weight", "setting": "LAPC-4 tumors; oral", "value": "well tolerated during the study and no sign of toxicity or weight loss was observed"}, {"measurement": "ERα half-life", "setting": "ERα", "value": "about 60 min"}, {"measurement": "E2-mediated gene expression", "setting": "ERα response genes", "value": "downregulation of E2-mediated gene expression"}, {"measurement": "p53 level", "setting": "p53; MCF-7 cells (wild-type p53)", "value": "significantly increased"}, {"measurement": "p53 level", "setting": "p53; T47D cells (mutated p53 L194F)", "value": "not in T47D cells"}, {"measurement": "apoptosis", "setting": "LNCaP and LAPC-4 cells", "value": "No apoptotic effect"}]}]}
